Measurements from patent US11427558B1, “Indazoles and azaindazoles as LRRK2 inhibitors” (ESCAPE Bio, Inc., priority 2019, dated 2022).

How the values were obtained:
[1] = biological target: Recombinant wild type LRRK2 protein (Homo sapiens (Human), UniProt Q5S007); assay: LRRK2 kinase activity, LanthaScreen TR-FRET assay (wild type); format: biochemical; settings: LRRKtide 400 nM, 25 μM ATP, 60 min; read-out: LRRK2 WT IC50
Experimental: (§1) LRRK2 kinase activity was measured using a LanthaScreen™ Kinase Activity Assay from ThermoFisher Scientific. Recombinant wild type or G2019S-LRRK2 protein (Life Technologies, PR8604B or PV4881, respectively), was incubated with a fluorescein-labeled peptide substrate called LRRKtide that is based upon ezrin/radixin/moesin (ERM) (Life Technologies, PV4901) in the presence of ATP and serially diluted compound. […] Compound-dependent inhibition of the TR-FRET signal was used to generate a concentration-response curve for IC50 determination.
(§2) After 60 min incubation at room temperature, the reaction was stopped by addition of 10 μL of 2× stop solution containing a final concentration of 2 nM anti-pERM antibody and 10 mM EDTA. […] The ratio of the 520 nm and 495 nm emission was used to analyze the data.

[2] = biological target: Recombinant G2019S-LRRK2 protein (Homo sapiens (Human), UniProt Q5S007, G2019S); assay: LRRK2 kinase activity, LanthaScreen TR-FRET assay (G2019S); format: biochemical; settings: LRRKtide 400 nM, 25 μM ATP, 60 min
Experimental: as §1, §2

Recombinant G2019S-LRRK2 protein, sequence (Q5S007 whole entry G2019S): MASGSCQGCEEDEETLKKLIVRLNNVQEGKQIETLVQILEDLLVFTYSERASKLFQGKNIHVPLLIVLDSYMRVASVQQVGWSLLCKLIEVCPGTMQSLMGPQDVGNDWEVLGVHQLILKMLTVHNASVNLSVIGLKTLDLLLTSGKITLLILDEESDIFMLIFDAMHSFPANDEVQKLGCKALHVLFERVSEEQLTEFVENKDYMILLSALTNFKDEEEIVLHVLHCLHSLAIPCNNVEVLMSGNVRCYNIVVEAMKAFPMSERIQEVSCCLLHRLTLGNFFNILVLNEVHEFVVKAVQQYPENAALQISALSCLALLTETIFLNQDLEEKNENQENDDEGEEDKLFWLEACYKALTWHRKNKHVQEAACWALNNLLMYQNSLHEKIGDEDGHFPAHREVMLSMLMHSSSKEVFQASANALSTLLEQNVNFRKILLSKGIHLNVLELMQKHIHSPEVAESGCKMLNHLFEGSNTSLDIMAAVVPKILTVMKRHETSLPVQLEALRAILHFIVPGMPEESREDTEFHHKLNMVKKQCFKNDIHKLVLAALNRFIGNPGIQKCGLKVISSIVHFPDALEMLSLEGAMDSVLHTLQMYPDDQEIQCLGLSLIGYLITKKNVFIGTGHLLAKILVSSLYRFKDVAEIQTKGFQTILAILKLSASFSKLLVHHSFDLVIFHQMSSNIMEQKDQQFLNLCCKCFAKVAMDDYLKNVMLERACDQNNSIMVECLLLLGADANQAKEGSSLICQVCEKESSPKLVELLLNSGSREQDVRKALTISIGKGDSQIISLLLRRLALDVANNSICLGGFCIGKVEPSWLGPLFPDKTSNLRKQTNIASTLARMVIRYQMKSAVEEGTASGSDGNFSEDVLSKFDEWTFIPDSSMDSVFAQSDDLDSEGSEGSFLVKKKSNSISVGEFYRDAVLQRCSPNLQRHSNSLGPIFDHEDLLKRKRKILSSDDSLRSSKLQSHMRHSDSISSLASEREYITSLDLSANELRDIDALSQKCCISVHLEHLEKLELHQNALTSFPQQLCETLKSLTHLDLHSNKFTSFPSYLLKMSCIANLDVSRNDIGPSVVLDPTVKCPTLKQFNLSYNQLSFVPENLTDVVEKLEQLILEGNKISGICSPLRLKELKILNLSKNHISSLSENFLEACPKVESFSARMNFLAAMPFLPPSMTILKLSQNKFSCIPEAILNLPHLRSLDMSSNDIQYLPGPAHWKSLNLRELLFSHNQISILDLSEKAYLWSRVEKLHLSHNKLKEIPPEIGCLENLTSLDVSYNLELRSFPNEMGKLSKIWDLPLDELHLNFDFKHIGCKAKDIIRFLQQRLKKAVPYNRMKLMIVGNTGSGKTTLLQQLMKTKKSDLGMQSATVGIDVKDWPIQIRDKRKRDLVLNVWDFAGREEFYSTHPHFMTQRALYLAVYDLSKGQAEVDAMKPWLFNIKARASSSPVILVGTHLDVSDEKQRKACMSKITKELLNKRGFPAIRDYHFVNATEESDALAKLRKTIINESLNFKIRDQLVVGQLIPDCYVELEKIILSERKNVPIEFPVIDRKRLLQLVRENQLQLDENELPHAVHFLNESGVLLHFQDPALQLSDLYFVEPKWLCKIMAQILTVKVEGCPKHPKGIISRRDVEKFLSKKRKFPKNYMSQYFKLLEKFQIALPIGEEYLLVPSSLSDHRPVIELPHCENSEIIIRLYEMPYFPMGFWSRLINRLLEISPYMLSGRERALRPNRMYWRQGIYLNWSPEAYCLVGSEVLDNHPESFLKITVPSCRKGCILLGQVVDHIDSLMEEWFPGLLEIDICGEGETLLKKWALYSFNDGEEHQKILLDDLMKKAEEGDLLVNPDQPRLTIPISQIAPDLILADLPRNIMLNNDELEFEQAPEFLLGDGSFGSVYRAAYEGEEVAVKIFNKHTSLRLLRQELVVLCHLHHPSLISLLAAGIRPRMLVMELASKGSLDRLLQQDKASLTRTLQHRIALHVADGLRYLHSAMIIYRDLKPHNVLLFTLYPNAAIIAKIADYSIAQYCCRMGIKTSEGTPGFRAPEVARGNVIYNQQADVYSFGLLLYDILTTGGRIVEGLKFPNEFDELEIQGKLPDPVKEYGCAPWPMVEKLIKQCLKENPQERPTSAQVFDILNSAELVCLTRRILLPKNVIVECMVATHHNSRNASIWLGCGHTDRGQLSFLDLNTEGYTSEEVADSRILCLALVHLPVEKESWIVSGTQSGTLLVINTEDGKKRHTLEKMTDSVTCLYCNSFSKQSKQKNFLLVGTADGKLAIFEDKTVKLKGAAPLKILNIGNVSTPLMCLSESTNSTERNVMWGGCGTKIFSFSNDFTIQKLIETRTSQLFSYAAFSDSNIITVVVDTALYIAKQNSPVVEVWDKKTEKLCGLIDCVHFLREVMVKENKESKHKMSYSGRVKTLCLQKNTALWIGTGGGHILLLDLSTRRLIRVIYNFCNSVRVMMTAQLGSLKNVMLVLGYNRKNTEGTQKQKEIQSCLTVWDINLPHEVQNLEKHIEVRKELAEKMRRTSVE
Recombinant wild type LRRK2 protein, sequence (Q5S007 whole entry): as the sequence (Q5S007 whole entry G2019S) above, with S2019G counted along it

Compound | IC50 [1] [nM] | IC50 [2] [nM]
Cc1c(C(=O)Nc2ccc3[nH]nc(-c4ccoc4)c3c2)nn(C)c1C#N [Example 93, 5-Cyano-N-(3-(furan-3-yl)-1H-indazol-5-yl)-1,4-dimethyl-1H-pyrazole-3-carboxamide] | 100 to 1000 | 100 to 1000
Cc1cc(C(=O)Nc2ccc3[nH]nc(-c4ccoc4)c3c2)ncc1C#N [Example 94, 5-Cyano-N-(3-(furan-3-yl)-1H-indazol-5-yl)-4-methylpicolinamide] | 100 to 1000 | < 100
N#Cc1cnc(C(=O)Nc2ccc3[nH]nc(-c4ccoc4)c3c2)c(Cl)c1 [Example 95, 3-chloro-5-cyano-N-(3-(furan-3-yl)-1H-indazol-5-yl)picolinamide] | < 100 | < 100
Cn1c(C#N)cnc1C(=O)Nc1ccc2[nH]nc(-c3ccoc3)c2c1 [Example 96, 5-Cyano-N-(3-(furan-3-yl)-1H-indazol-5-yl)-1-methyl-1H-imidazole-2-carboxamide] | 100 to 1000 | 100 to 1000
Cn1nc(C(=O)Nc2ccc3[nH]nc(-c4ccoc4)c3c2)cc1C#N [Example 97, 5-Cyano-N-(3-(furan-3-yl)-1H-indazol-5-yl)-1-methyl-1H-pyrazole-3-carboxamide] | 100 to 1000 | < 100
Cc1ccccc1-c1n[nH]c2ccc(NC(=O)c3ncc(C#N)cc3C)cc12 [Example 98, 5-Cyano-3-methyl-N-(3-(o-tolyl)-1H-indazol-5-yl)picolinamide] | > 10000 | 1000 to 10000
COc1ccccc1-c1n[nH]c2ccc(NC(=O)c3ncc(C#N)cc3C)cc12 [Example 99, 5-Cyano-N-(3-(2-methoxyphenyl)-1H-indazol-5-yl)-3-methylpicolinamide] | 1000 to 10000 | 100 to 1000
Cc1cc(C#N)cnc1C(=O)Nc1ccc2[nH]nc(-c3ccoc3)c2n1 [Example 100, 5-Cyano-N-(3-(furan-3-yl)-1H-pyrazolo[4,3-b]pyridin-5-yl)-3-methylpicolinamide] | < 100 | < 100
Cc1cc(C#N)cnc1C(=O)Nc1ccc2[nH]nc(-c3ccno3)c2c1 [Example 101, 5-Cyano-N-(3-(isoxazol-5-yl)-1H-indazol-5-yl)-3-methylpicolinamide] | 100 to 1000 | < 100
Cc1cc(C#N)cnc1C(=O)Nc1ccc2[nH]nc(-c3ccc(CN4CCOCC4)s3)c2c1 [Example 102, 5-Cyano-3-methyl-N-(3-(5-(morpholinomethyl)thiophen-2-yl)-1H-indazol-5-yl)picolinamide] | 100 to 1000 | < 100
Cc1cc(C#N)cnc1C(=O)Nc1ccc2[nH]nc(-c3ccnc(Br)c3)c2c1 [Example 103, N-(3-(2-Bromopyridin-4-yl)-1H-indazol-5-yl)-5-cyano-3-methylpicolinamide] | < 100 | < 100
Cc1c(C(=O)Nc2ccc3[nH]nc(-c4ccccc4)c3c2)nc(C#N)n1C [Example 104, 2-Cyano-1,5-dimethyl-N-(3-phenyl-1H-indazol-5-yl)-1H-imidazole-4-carboxamide] | 100 to 1000 | 100 to 1000
Cc1cc(C#N)cnc1C(=O)Nc1ccc2[nH]nc(Br)c2c1 [Example 106, N-(3-Bromo-1H-indazol-5-yl)-5-cyano-3-methylpicolinamide] | 1000 to 10000 | < 100
N#Cc1ccc(C(=O)Nc2ccc3[nH]nc(-c4ccoc4)c3c2)c(O)c1 [Example 107, 4-Cyano-N-(3-(furan-3-yl)-1H-indazol-5-yl)-2-hydroxybenzamide] | 100 to 1000 | 100 to 1000
Cc1cc(C#N)cnc1C(=O)Nc1ccc2[nH]nc(-c3ccc(C(=O)N4CCOCC4)cc3)c2c1 [Example 108, 5-Cyano-3-methyl-N-(3-(4-(morpholine-4-carbonyl)phenyl)-1H-indazol-5-yl)picolinamide] | 100 to 1000 | < 100
Cc1cc(C#N)cnc1C(=O)Nc1ccc2[nH]nc(-c3cncc(OC(C)C)c3)c2c1 [Example 109, 5-Cyano-N-(3-(5-isopropoxypyridin-3-yl)-1H-indazol-5-yl)-3-methylpicolinamide] | 100 to 1000 | < 100
Cc1cc(C#N)cnc1C(=O)Nc1ccc2[nH]nc(-c3cncs3)c2c1 [Example 110, 5-Cyano-3-methyl-N-(3-(thiazol-5-yl)-1H-indazol-5-yl)picolinamide] | 100 to 1000 | < 100
Cc1cc(C#N)cnc1C(=O)Nc1ccc2[nH]nc(-c3cnco3)c2c1 [Example 111, 5-Cyano-3-methyl-N-(3-(oxazol-5-yl)-1H-indazol-5-yl)picolinamide] | 100 to 1000 | < 100
Cc1cccc(-c2n[nH]c3ccc(NC(=O)c4ncc(C#N)cc4C)cc23)n1 [Example 112, 5-Cyano-3-methyl-N-(3-(6-methylpyridin-2-yl)-1H-indazol-5-yl)picolinamide] | 100 to 1000 | 100 to 1000
